Measured values published in patent US10597388B2, “Pyridazinone herbicides” (FMC CORPORATION, priority 2014, dated 2020).
Read-outs that look alike come from different tables or passages of the source.

What was measured:
Assay type in all cases: in vivo
[1] = tested on: waterhemp_RES1 (ALS & Triazine resistant common waterhemp, Amaranthus rudis); experiment: Test E greenhouse herbicide test, postemergence
Method: (§1) At the same time, plants from these crop and weed species and also waterhemp_RES1, (ALS & Triazine resistant common waterhemp, Amaranthus rudis), and waterhemp_RES2, (ALS & HPPD resistant common waterhemp, Amaranthus rudis) were planted in pots containing Redi-Earth® planting medium (Scotts Company, 14111 Scottslawn Road, Marysville, Ohio 43041) comprising spaghnum peat moss, vermiculite, wetting agent and starter nutrients were treated with postemergence applications of test chemicals formulated in the same manner. Plants ranged in height from 2 to 18 cm for postemergence treatments (1- to 4-leaf stage). Treated plants and controls were maintained in a greenhouse for 14 to 21 d, after which time all species were compared to controls and visually evaluated. Plant response ratings, summarized in Table E, are based on a scale of 0 to 100 where 0 is no effect and 100 is complete control. A dash (-) response means no test result.

[2] = tested on: waterhemp_RES2 (ALS & HPPD resistant common waterhemp, Amaranthus rudis); experiment: Test E greenhouse herbicide test, postemergence
Method: as §1

[3] = tested on: velvetleaf (Abutilon theophrasti); experiment: Test A greenhouse herbicide test, pre- and postemergence; details: Abutilon theophrasti, 240 h; for pest or weed control at 125 g/ha: 125 g ai/ha; for pest or weed control at 500 g/ha: 500 g ai/ha; for pest or weed control at 500 g/ha / pest or weed control at 1000 g/ha: 0 to 100 scale; for pest or weed control at 1000 g/ha: 1000 g ai/ha
In short: (§2)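 Seeds sown in loam–sand blend got a preemergence directed soil spray of compound in non-phytotoxic solvent with surfactant. Postemergence treatment was given at 2–10 cm, one- to two-leaf stage. After ~10 d in greenhouse, injury was rated visually vs untreated controls, 0 (no effect) to 100 (complete control).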

[4] = tested on: momingglory (Ipomoea spp.); experiment: as above; details: Ipomoea, 240 h; for pest or weed control at 125 g/ha: 125 g ai/ha; for pest or weed control at 500 g/ha: 500 g ai/ha; for pest or weed control at 500 g/ha / pest or weed control at 1000 g/ha: 0 to 100 scale; for pest or weed control at 1000 g/ha: 1000 g ai/ha
In short: as §2

[5] = tested on: crabgrass, large (large crabgrass, Digitaria sanguinalis); experiment: as above; details: Digitaria sanguinalis, 240 h; for pest or weed control at 125 g/ha: 125 g ai/ha; for pest or weed control at 500 g/ha: 500 g ai/ha; for pest or weed control at 500 g/ha / pest or weed control at 1000 g/ha: 0 to 100 scale; for pest or weed control at 1000 g/ha: 1000 g ai/ha
In short: as §2

[6] = tested on: wild poinsettia (Euphorbia heterophylla); experiment: Test E greenhouse herbicide test, pre- and postemergence
In short: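 Pre- and postemergence sprays, same solvent–surfactant formulation. Substrate: silt loam (pre), peat-based mix (post, 1–4 leaf, 2–18 cm). Readout: visual control rating 0–100 against controls at 14–21 d.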

[7] = 16 g ai/ha, visual, scale 0 no effect to 100 complete control
[8] = 31 g ai/ha, visual, scale 0 no effect to 100 complete control
[9] = 62 g ai/ha, scale 0 to 100 (0 no effect, 100 complete control)
[10] = 125 g ai/ha, scale 0 to 100 (0 no effect, 100 complete control)
[11] = 250 g ai/ha, scale 0 to 100 (0 no effect, 100 complete control)
[12] = post-emergence, Postemergence, visual rating after approx. 10 d, 0 to 100 scale (0 no effect, 100 complete control), read-out: Plant response rating, Velvetleaf
[13] = post-emergence, Postemergence, 0 is no effect, 100 is complete control, read-out: Velvetleaf plant response rating
[14] = pre-emergence, Preemergence, 0 to 100 scale where 0 is no effect and 100 is complete control, read-out: Velvetleaf plant response rating
[15] = pre-emergence, Preemergence, 0 no effect, 100 complete control, read-out: Plant response rating, Velvetleaf
[16] = post-emergence, Postemergence, visual rating after approx. 10 d, 0 to 100 scale (0 no effect, 100 complete control), read-out: Plant response rating, Morningglory
[17] = post-emergence, Postemergence, 0 is no effect, 100 is complete control, read-out: Morningglory plant response rating
[18] = pre-emergence, Preemergence, 0 to 100 scale where 0 is no effect and 100 is complete control, read-out: Morningglory plant response rating
[19] = pre-emergence, Preemergence, 0 no effect, 100 complete control, read-out: Plant response rating, Morningglory
[20] = post-emergence, Postemergence, visual rating after approx. 10 d, 0 to 100 scale (0 no effect, 100 complete control), read-out: Plant response rating, Crabgrass, Large
[21] = post-emergence, Postemergence, 0 is no effect, 100 is complete control, read-out: Crabgrass, Large plant response rating
[22] = pre-emergence, Preemergence, 0 to 100 scale where 0 is no effect and 100 is complete control, read-out: Crabgrass, Large plant response rating
[23] = pre-emergence, Preemergence, 0 no effect, 100 complete control, read-out: Plant response rating, Crabgrass, Large

Row | SMILES | pest or weed control at 125 g/ha [3, 12] [%] | pest or weed control at 500 g/ha [3, 13] [%] | pest or weed control at 125 g/ha [3, 14] [%] | pest or weed control at 500 g/ha [3, 15] [%] | pest or weed control at 125 g/ha [4, 16] [%] | pest or weed control at 500 g/ha [4, 17] [%] | pest or weed control at 125 g/ha [4, 18] [%] | pest or weed control at 500 g/ha [4, 19] [%] | pest or weed control at 125 g/ha [5, 20] [%] | pest or weed control at 500 g/ha [5, 21] [%] | pest or weed control at 125 g/ha [5, 22] [%] | pest or weed control at 500 g/ha [5, 23] [%] | pest or weed control at 1000 g/ha [3, 13] [%] | pest or weed control at 1000 g/ha [3, 15] [%] | pest or weed control at 1000 g/ha [4, 17] [%] | pest or weed control at 1000 g/ha [4, 19] [%] | pest or weed control at 1000 g/ha [5, 21] [%] | pest or weed control at 1000 g/ha [5, 23] [%] | also measured
1 | Cc1cc(C)c2sc(C)c(-c3c(O)c(C)nn(C)c3=O)c2c1 [Compound 2, 5-hydroxy-2,6-dimethyl-4-(2,5,7-trimethylbenzo[b]thien-3-yl)-3(2H)-pyridazinone] | 100 | 100 | 80 | 90 | 100 | 100 | 80 | 100 | 50 | 70 | 90 | 100 |  |  |  |  |  |  | Plant response rating, Waterhemp_RES1 [1, 7]: 65; Plant response rating, Waterhemp_RES1 [1, 8]: 70; Plant response rating, Waterhemp_RES1 [1, 9]: 70; Plant response rating, Waterhemp_RES1 [1, 10]: 70; Plant response rating, Waterhemp_RES1 [1, 11]: 100; Plant response rating, Waterhemp_RES2 [2, 7]: 0; Plant response rating, Waterhemp_RES2 [2, 8]: 0; Plant response rating, Waterhemp_RES2 [2, 9]: 5; Plant response rating, Waterhemp_RES2 [2, 10]: 5; Plant response rating, Waterhemp_RES2 [2, 11]: 60; Plant response rating, Poinsettia, Wild ([6]; 62 g ai/ha, Postemergence, scale 0 to 100 (0 no effect, 100 complete control)): 0; Plant response rating, Poinsettia, Wild ([6]; 62 g ai/ha, Preemergence, scale 0 to 100 (0 no effect, 100 complete control)): 30; Plant response rating, Poinsettia, Wild ([6]; 125 g ai/ha, Postemergence, scale 0 to 100 (0 no effect, 100 complete control)): 15; Plant response rating, Poinsettia, Wild ([6]; 125 g ai/ha, Preemergence, scale 0 to 100 (0 no effect, 100 complete control)): 30; Plant response rating, Poinsettia, Wild ([6]; 250 g ai/ha, Postemergence, scale 0 to 100 (0 no effect, 100 complete control)): 15; Plant response rating, Poinsettia, Wild ([6]; Postemergence, 16 g ai/ha, visual, scale 0 no effect to 100 complete control): 0; Plant response rating, Poinsettia, Wild ([6]; Postemergence, 31 g ai/ha, visual, scale 0 no effect to 100 complete control): 0; Plant response rating, Poinsettia, Wild ([6]; Preemergence, 16 g ai/ha, scale 0 to 100, 0 no effect, 100 complete control): 0; Plant response rating, Poinsettia, Wild ([6]; Preemergence, 31 g ai/ha, scale 0 to 100, 0 no effect, 100 complete control): 25; Plant response rating, Poinsettia, Wild ([6]; Preemergence, 250 g ai/ha, visual, scale 0 no effect to 100 complete control): 50
2 | Cc1nn(C)c(=O)c(-c2cccc3ccccc23)c1O [Compound 11, 5-hydroxy-2,6-dimethyl-4-(1-naphthalenyl)-3(2H)-pyridazinone] |  |  |  |  |  |  |  |  |  |  |  |  | 100 | 80 | 90 | 90 | 70 | 80 | 
3 | CCc1oc2ccc(C)cc2c1-c1c(O)c(C)nn(C)c1=O [Compound 10, 4-(2-ethyl-5-methyl-3-benzofuranyl)-5-hydroxy-2,6-dimethyl-3(2H)-pyridazinone] |  |  |  |  |  |  |  |  |  |  |  |  | 100 | 90 | 100 | 90 | 70 | 90 | 
4 | Cc1nn(C)c(=O)c(-c2c(C)oc3cccc(C)c23)c1O [Compound 8, 4-(2,4-dimethyl-3-benzofuranyl)-5-hydroxy-2,6-dimethyl-3(2H)-pyridazinone] | 60 | 60 | 0 | 30 | 0 | 10 | 0 | 0 | 0 | 30 | 10 | 60 |  |  |  |  |  |  | 
